The values below come from paper PMC13072876 (International Journal of Molecular Sciences, 2026).

This data set is described as follows: Water solubility, experimental. The class given is physicochemical. The text has this: Table 5 Water solubility of tested compounds experimental [mg/mL] and predicted by the SwissADME web tool. | column: Water Solubility / [mg/mL]

Converted amounts (≈) assume the structure as drawn.

Regarding `COc1cc2c(c(OC)c1OC)-c1ccc(OC)c(=O)cc1[C@@H](NC(C)=O)CC2` [compound 1, colchicine], the Water solubility experimental (experimental) is reported as 45 mg/mL. In general, solubility refers to the dissolved amount per volume that the medium holds. As to `COc1cccc2c1C(=O)c1c(O)c3c(c(O)c1C2=O)C[C@@](O)(C(=O)CO)C[C@@H]3O[C@H]1C[C@H](N)[C@H](O)[C@H](C)O1` [doxorubicin], the solubility (water) came out at 50 mg/mL (≈ 92 mM).
